The values below come from US4443460A, “2-[4-(Diphenylmethylene)-1-piperidinyl]-acetic acids and their amides” (UCB, Societe Anonyme, priority 1980, dated 1984).

For series [1], the system named is bronchospasms induced by histamine. The series can be described thus: Konzett-Roessler bronchospasm test, histamine-induced (antihistaminic activity). The conditions noted are these: Cavia porcellus, iv; guinea pigs, i.v., histamine-induced; read-out: dose which inhibits 50% of the induced bronchospasms, Histamine. The series is classed as in vivo. The method, then:
(§1) These activities were measured in guinea pigs by the method of H. Konzett and R. […] Anaesthetized and curarized guinea pigs are subjected to artificial ventilation. The endotracheal pressure is recorded. Repeated bronchial spasms are induced by successive and progressive intravenous injections of respectively acetylcholine, histamine and serotonin. The test compounds are also administered intravenously.

The test system of series [2] is mice. Kind of series: General behaviour of mice (Irwin's test), tranquilization. The format is in vivo. Particulars: male mice, intraperitoneal. The method, then: The behaviour is studied by means of Irwin's test (see S. Irwin, "General philosophy and methodology of screening: a multidimensional approach"; Gordon Research Conference on Medicinal Chemistry, Aug. 3-7, 1959, at Colby Junior College, New London).
(§2) Progressive doses of the test compounds are administered intraperitoneally to groups of three male mice (body weight 18 to 22 g) and the general behaviour of the animals is observed according to known criteria. The reference compounds used are the following:
The following Table gives the doses (in mg/kg) which induce the first manifestations of tranquilization in the animals: […]

Series [3] concerns mice. Particulars: mouse, in vivo, ip. The procedure: as §2
Furthermore, in this test, the toxicity of the compounds according to the present invention appears to be very low. This toxicity, determined by intraperitoneal administration in mice (dose which brings about the death of two animals out of three), is given in the following Table: […]

The test system of series [4] is bronchospasms induced by serotonin. Kind of series: Konzett-Roessler bronchospasm test, serotonin-induced. The format is in vivo. Particulars: Cavia porcellus, iv, guinea pigs, i.v., read-out: dose which inhibits 50% of the induced bronchospasms, Serotonin. The procedure: as §1
Series [5] relates to passive cutaneous anaphylaxis. Kind of series: passive cutaneous anaphylaxis test (PCA), antiallergic activity. The series is classed as in vivo. The conditions noted are these: rats; for ED50: Rattus norvegicus, 0.25 h, read-out: ID 50 per os (reduction of 50% of the surface area of the colored spot). The method, then:
This activity is determined in rats by means of the passive cutaneous anaphylaxis test (PCA) (see J. Goose and A. M. J. N. Blair, Immunology,16,(1969),749-760; and U. Martin and D. Roemer, Arzneimittel-Forschung,28,(5), (1978),770-782).
Female rats are used, the sides of which have been partly shaved. Into the zone thus shaved there is injected intradermally, for passive sensitization of the animals, 0.05 ml of IGE antiovalbumin serum at a dilution such that, at the time of the PCA test, a distinct spot with a surface area of about 100 mm^2 appears at the point of injection.
72 Hours after the injection, 0.25 ml of a solution of allergen containing a coloring agent (5 mg of ovalbumin and 6 mg Evans Blue in 0.25 ml of a 0.9% aqueous solution of sodium chloride) is administered intravenously. At the point of intradermal injection, there appears a distinct blue spot, the surface of which is measured.
In order to test the activity of the compound according to the present invention, the procedure is carried out in the same manner; however:
the test compound is administered orally 72 hours after injection of the serum;
15 minutes after this administration, 0.25 ml of the solution of the allergen is injected intravenously;
30 minutes after the administration of the allergen, the surface of the blue spot is measured.
The following Table gives the immunological doses (ID 50 in μmol/kg) which bring about, on average of the total number of animals submitted to the test, a reduction of 50% of the surface area of the colored spot.

Series [6] deals with bronchospasms induced by acetylcholine. The series can be described thus: Konzett-Roessler bronchospasm test, acetylcholine-induced. The format is in vivo. Particulars: Cavia porcellus, iv, guinea pigs, i.v., read-out: dose which inhibits 50% of the induced bronchospasms, Acetylcholine. The method, then: as §1
Series [7] deals with respiratory spasm induced by pilocarpine. The series can be described thus: pilocarpine dog test, broncholytic activity. Particulars: dogs, i.v., 3200 μg/kg. The format is in vivo. The procedure:
Anaesthetized and curarized dogs are subjected to artificial ventilation. The endotracheal pressure is recorded. A constant respiratory spasm is induced by the continuous intravenous perfusion of pilocarpine. The test substances are also administered intravenously.

Where [8] appears, read: oral, allergen i.v. 15 minutes after administration.

Structures are written as SMILES. Structures can show the parent of a compound that is named as a salt. A value given as a limit tells only on which side of the number the result lay.

For `Cl.O=C(O)COCCOCCN1CCC(=C(c2ccccc2)c2ccc(Cl)cc2)CC1` [compound J, 2-[2-[2-[4-[(4-chlorophenyl)phenylmethylene]-1-piperidinyl]ethoxy]ethoxy]-acetic acid hydrochloride], the ED50 in series [1] was 0.283 mg/kg; in series [4] it was 0.796 mg/kg; in series [5] (setting [8]), 100 µmol/kg; in series [6], over 46.6 mg/kg. In addition, the “"Tranquilizing" dose (first manifestations of tranquilization)” value (“"Tranquilizing" dose” for short) in series [2] was 47 mg/kg. Also, in series [3], the “Toxicity (dose which brings about the death of two animals out of three)” value (shortened to “Toxicity”) is on record as 140 mg/kg.

Take `Cl.O=C(COCCOCCN1CCC(=C(c2ccccc2)c2ccccc2)CC1)Nc1ccccc1` [compound N, 2-[2-[2-[4-(diphenylmethylene)-1-piperidinyl]ethoxy]ethoxy]-N-phenylacetamide hydrochloride]: the ED50 in series [1] was found to be 0.192 mg/kg; in series [4] it was 0.086 mg/kg; in series [5] (setting [8]) it was 15.2 µmol/kg; in series [6], 1.35 mg/kg.

For the molecule `O=C(O)COCCN1CCC(=C(c2ccccc2)c2ccc(F)cc2)CC1` [compound L, 2-[2-[4-[(4-fluorophenyl)phenylmethylene]-1-piperidinyl]ethoxy]-acetic acid], the ED50 was 0.058 mg/kg in series [1], 0.198 mg/kg in series [4], 34 µmol/kg in series [5] (setting [8]) and over 11.8 mg/kg in series [6]. In series [2], the “"Tranquilizing" dose” value worked out at 110 mg/kg. Besides, the “Toxicity” value in series [3] was determined as 369 mg/kg.

Take `Cl.O=C(O)COCCN1CCC(=C(c2ccccc2)c2ccccc2)CC1` [compound B, 2-[2-[4-(diphenylmethylene)-1-piperidinyl]ethoxy]-acetic acid hydrochloride]: the ED50 in series [1] is 0.037 mg/kg; in series [4], 0.206 mg/kg; in series [5] (setting [8]), 39 µmol/kg; in series [6], over 82.5 mg/kg. In addition, the “"Tranquilizing" dose” value in series [2] is on record as 105 mg/kg. Also, the “Toxicity” value in series [3] worked out at 233 mg/kg.

Turning to `COc1ccc(C(=C2CCN(CCOCC(=O)O)CC2)c2ccccc2)cc1.Cl` [compound M, 2-[2-[4-[(4-methoxyphenyl)phenylmethylene]-1-piperidinyl]ethoxy]-acetic acid hydrochloride], the ED50 in series [1] is 0.181 mg/kg; in series [4], 0.893 mg/kg; in series [5] (setting [8]), 208 µmol/kg; in series [6] it was over 41.8 mg/kg. In addition, in series [2], the “"Tranquilizing" dose” value worked out at 125 mg/kg. In addition, the “Toxicity” value in series [3] is 418 mg/kg.

In the case of `COc1ccc(C(=C2CCN(CCOCC(N)=O)CC2)c2ccccc2)cc1.Cl` [compound H, 2-[2-[4-[(4-methoxyphenyl)phenylmethylene]-1-piperidinyl]ethoxy]-acetamide hydrochloride], the ED50 in series [1] is 0.026 mg/kg; in series [4] it was 0.18 mg/kg; in series [5] (setting [8]), 31.4 µmol/kg; in series [6], over 41.6 mg/kg. In addition, the “Toxicity” value in series [3] amounted to 416 mg/kg.

Turning to `NC(=O)COCCN1CCC(=C(c2ccccc2)c2ccccc2Cl)CC1` [compound F, 2-[2-[4-[(2-chlorophenyl)phenylmethylene-1-piperidinyl]ethoxy]-acetamide hydrochloride], the ED50 in series [1] is 0.551 mg/kg; in series [4], 0.055 mg/kg; in series [5] (setting [8]) it was 66 µmol/kg; in series [6], over 1.35 mg/kg. Besides, the “"Tranquilizing" dose” value in series [2] is on record as “no sedative effect at all”. Besides, the “Toxicity” value in series [3] is 421 mg/kg.

On to `Cl.O=C(O)COCCN1CCC(=C(c2ccccc2)c2ccccc2Cl)CC1` [compound K, 2-[2-[4-[(2-chlorophenyl)phenylmethylene]-1-piperidinyl]ethoxy]-acetic acid hydrochloride], for which the ED50 came out at 0.104 mg/kg in series [1], 0.43 mg/kg in series [4], 100 µmol/kg in series [5] (setting [8]) and 39.5 mg/kg in series [6]. In series [2], the “"Tranquilizing" dose” value was determined as 126 mg/kg. The “Toxicity” value in series [3] is given as 422 mg/kg.

On to `O=C1Nc2ccc(Cl)cc2C(c2ccccc2)=NC1O` (stereo not shown) [Oxazepam, 7-chloro-1,3-dihydro-3-hydroxy-5-phenyl-2H-1,4-benzodiazepin-2-one, reference compound], for which the “"Tranquilizing" dose” value in series [2] came to 2.6 mg/kg.

Turning to `NC(=O)COCCN1CCC(=C(c2ccccc2)c2ccc(F)cc2)CC1` [compound G, 2-[2-[4-[(4-fluorophenyl)phenylmethylene]-1-piperidinyl]ethoxy]-acetamide], the ED50 in series [1] was 0.093 mg/kg; in series [4], 0.023 mg/kg; in series [5] (setting [8]), 5.5 µmol/kg; in series [6], over 11.8 mg/kg. Further, in series [3], the “Toxicity” value is given as 368 mg/kg.

Take `Cl.NC(=O)COCCN1CCC(=C(c2ccccc2)c2ccc(Cl)cc2)CC1` [compound D, 2-[2-[4-[(4-chlorophenyl)phenylmethylene]-1-piperidinyl]ethoxy]-acetamide hydrochloride]: in series [3], the “Toxicity” value came out at 126 mg/kg. The ED50 in series [5] (setting [8]) stood at 67.4 µmol/kg.

`Cn1c(=O)c2[nH]cnc2n(C)c1=O` [theophylline, reference compound]: the “reduction of the intensity of the induced spasm” value in series [7] came out at 35%.

With `Cl.O=C(O)COCCN1CCC(=C(c2ccccc2)c2ccc(Cl)cc2)CC1` [compound I, 2-[2-[4-[(4-chlorophenyl)phenylmethylene]-1-piperidinyl]ethoxy]-acetic acid hydrochloride], the ED50 came to 0.413 mg/kg in series [1], 1.18 mg/kg in series [4], 100 µmol/kg in series [5] (setting [8]) and 13.5 mg/kg in series [6]. Further, the “"Tranquilizing" dose” value in series [2] is recorded as 76 mg/kg. Moreover, the “Toxicity” value in series [3] was found to be 844 mg/kg.

With `NC(=O)COCCOCCN1CCC(=C(c2ccccc2)c2ccc(Cl)cc2)CC1` [compound E, 2-[2-[2-[4-[(4-chlorophenyl)phenylmethylene]-1-piperidinyl]ethoxy]ethoxy]-acetamide], the ED50 in series [1] was 0.348 mg/kg; in series [4], 0.085 mg/kg; in series [5] (setting [8]) it was 34 µmol/kg; in series [6], over 4.29 mg/kg. Besides, in series [3], the “Toxicity” value is given as 128 mg/kg.

For the molecule `OCCOCCN1CCN(C(c2ccccc2)c2ccc(Cl)cc2)CC1` (stereo not drawn) [Hydroxyzine, 1-(p-chloro-alpha-phenylbenzyl)-4-(2-hydroxyethoxyethyl)piperazine, reference compound], in series [2], the “"Tranquilizing" dose” value came out at 27 mg/kg.

In the case of `Cl.NC(=O)COCCOCCN1CCC(=C(c2ccccc2)c2ccccc2)CC1` [compound C, 2-[2-[2-[4-(diphenylmethylene)-1-piperidinyl]ethoxy]ethoxy]-acetamide hydrochloride], the ED50 in series [1] came out at 0.031 mg/kg; in series [4], 0.009 mg/kg; in series [5] (setting [8]), 76 µmol/kg; in series [6], 0.47 mg/kg. In series [3], the “Toxicity” value is 258 mg/kg.

Take `O=C(O)c1cc(=O)c2c(OCC(O)COc3cccc4oc(C(=O)O)cc(=O)c34)cccc2o1` [sodium cromoglycate, reference compound]: the “ID 50 per os (reduction of 50% of the surface area of the colored spot)” value in series [5] (setting [8]) is “inactive”. In addition, in series [5] (per os), the “activity when administered per os (in words)” value was “inactive”.
